From patent US20070213291A1, “Therapeutically useful synthetic oligonucleotides” (priority 1999, published 2007)
“And” between values parts separate entries of the source, which are not always exact repeats. Equal entries are not always repeated.

Columns and labels:
Assay type in all cases: cell-based
[1] = system: EL-4 murine T lymphoma cells; test: Inhibition of EL-4 cell proliferation (MTT); settings: 100 μg/ml, 48 h
Protocol: (§1) Cells were seeded in 6 (1 ml/well), 24 (0.5 ml/well) or 96 (0.1 ml/well) well flat-bottom microplates and were maintained at 37° C. in a 5% CO2 atmosphere. Unless stated otherwise, 2.5×10^5 cells/ml were incubated with 0 μg/ml (control) and 100 μg/ml (treated) of 2 to 45 base sequences containing A, C, G and T for 48 h.
(§2) Cell proliferation was measured using dimethylthiazol-diphenyl-tetrazolium (MTT) reduction (Mosman et al. J. Immunol. Methods 65:55, 1983). MTT was measured at a wavelength of 570 nm using a multiplate spectrophotometer reader (ELX800, Bio-TEK Instruments Inc., Winooski, Vt.).
EL-4 murine lymphoma T cells are a suspension tumor model. EL-4 murine lymphoma T cells were incubated with 6, 18, 27 and 33 base GT sequences and with a 15 base ACG sequence (Table 18).

[2] = system: D-17 canine osteosarcoma cells; test: Inhibition of D-17 cell proliferation (MTT); settings: 100 μg/ml, 48 h, 5×10^5 cells/ml
Protocol: as §1, §2
(§3) D-17 canine osteosarcoma cells and CF-51 canine mammary gland cancer cells are solid tumor models. D-17 canine osteosarcoma cells (5×10^5 cells/ml) (Table 20) and CF-51 canine mammary gland cancer cells (5×10^5 cells/ml) (Table 21) were incubated with 6, 9, 17, 27 and 33 base GT-sequences and with a 15 base ACG sequence.

[3] = system: PC-3 human prostate cancer cells; test: Inhibition of PC-3 cell proliferation (MTT); settings: 100 μg/ml, 48 h, 5×10^5 cells/ml
Outline: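 PC-3 cells (5×10^5 cells/ml) exposed 48 h at 37 °C to 3- and 6-base GT oligonucleotide sequences at 100 μg/ml versus untreated control. Proliferation read by MTT reduction at 570 nm.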

[4] = system: THP-1 human acute monocytic leukemia cells; test: Inhibition of THP-1 cell proliferation (MTT); settings: 100 μg/ml, 48 h, 1.6×10^6 cells/ml
Protocol: as §1, §2
THP-1 acute monocytic leukemia cells are a p53 null human suspension tumor model. THP-1 cells (1.6×10^6 cells/ml) were incubated with 6 base GT sequences (Table 10).

[5] = system: Jurkat human leukemia T cells; test: Cell cycle stage in Jurkat cells (propidium iodide flow cytometry); settings: 24 h
Outline: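 Exponentially growing Jurkat cells were exposed for 24 h to 2–45-base A/C/G/T oligonucleotides, or at 1×10^6 cells/ml to 6-base GT and AC strands, alone (heated 10 min, 65 °C) or hybridized 1:1. Detergent-, trypsin-, RNase- and spermine-treated nuclei were propidium iodide-stained and scored for G0/G1, early/mid/late S and G2/M by doublet-discriminating flow cytometry.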

[6] = system: MCF-7 human breast cancer cells; test: Inhibition of MCF-7 cell proliferation (MTT); settings: for % INHIBITION of MCF-7 human breast cancer cell proliferation: 100 μg/ml, 48 h, 5×10^5 cells/ml
Outline: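 Cells at 2.5×10^5 cells/ml (GT 3- and 6-base series at 5×10^5 cells/ml) treated with 100 μg/ml of 2-45-base oligonucleotide sequences versus untreated control for 48 h at 37 °C, 5% CO2. Proliferation read by MTT reduction at 570 nm.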

[7] = system: SK-OV-3 human ovarian cancer cells; test: Inhibition of SK-OV-3 cell proliferation (MTT); settings: 100 μg/ml, 48 h, 5×10^5 cells/ml
Protocol: as §1, §2
SK-OV-3 ovarian cancer cells are a p53 mutated, p21/waf-1/Cip deleted, p15^ink4B deleted, p16^Ink4 deleted, metastatichuman solid tumor model. SK-OV-3 cells (5×10^5 cells/ml) were incubated with 2, 6 and 18 base GT sequences (Table 12).

[8] = system: Jurkat human leukemia T cells; test: Apoptosis by phosphatidylserine/annexin V-FITC flow cytometry; settings: 50 μM sequence
Outline: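 Jurkat cells were exposed to 3–7-base oligonucleotides (GT, ACGT, AG, GG, AGT, CGT sequences) at 50 μM. Separately, 6-base GT and complementary AC sequences, alone or hybridized 1:1 (10 min, 65 °C), were applied for 24 h. Phosphatidylserine exposure was quantified by flow cytometry with FITC-annexin V.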

[9] = system: CF-51 canine mammary gland cancer cells; test: Inhibition of CF-51 cell proliferation (MTT); settings: 100 μg/ml, 48 h, 5×10^5 cells/ml
Protocol: as §1, §2, §3

[10] = system: Jurkat human leukemia T cells; test: NuMA release into supernatant (ELISA); settings: for % NuMA released (treated vs untreated cells): 50 μM sequence
Outline: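 Jurkat T cells (1×10^6/ml) exposed to GT-containing oligonucleotide sequences, at 50 μM in some experiments, for 24 h in some experiments. NuMA released into the supernatant quantified by commercial ELISA.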

[11] = Jurkat 1×10^6 cells/ml, sequences heated 10 minutes at 65° C.

| Sequence | % INHIBITION of EL-4 murine T lymphoma cell proliferation [1] | % INHIBITION of D-17 canine osteosarcoma cell proliferation [2] | % INHIBITION of PC-3 human prostate cancer cell proliferation [3] | % INHIBITION of THP-1 human acute monocytic leukemia cell proliferation [4] | % of cells in phase: G0/G1 ([5]; Jurkat, 100 μg/ml) | % of cells in phase: G2/M ([5]; Jurkat, 100 μg/ml) | % of cells in phase: SE ([5]; Jurkat, 100 μg/ml) | % of cells in phase: SL ([5]; Jurkat, 100 μg/ml) | % of cells in phase: SM ([5]; Jurkat, 100 μg/ml) | Arrest (cell cycle) ([5]; Jurkat, 100 μg/ml) | % INHIBITION of MCF-7 human breast cancer cell proliferation [6] | % of cells in apoptosis (positive for PS/A-V staining) [8] | % INHIBITION of CF-51 canine mammary gland cancer cell proliferation [9] | % NuMA released (treated vs untreated cells) ([10]; Jurkat) | further results |
| --- | --- | --- | --- | --- | --- | --- | --- | --- | --- | --- | --- | --- | --- | --- | --- |
| GGGTGG [SEQ ID NO:25] | 4% and 1% | 18% | 38% | 15% | 28.5% | 0.0% | 46.3% | 10.7% | 14.6% | End SE | 41% | 27% | 14% | 69% | % cells in phase: G0/G1 [5, 11]: 28.0%; % cells in phase: G2/M [5, 11]: 0.9%; % cells in phase: SE [5, 11]: 45.8%; % cells in phase: SL [5, 11]: 11.3%; % cells in phase: SM [5, 11]: 14.0%; Arrest (cell cycle) [5, 11]: induced arrest at the end of the SE phase of the cell cycle; % INHIBITION of MCF-7 proliferation, 5-Fluorouracil 0.1 μg/ml ([6]; 5-fluorouracil 0.1 μg/ml, alone or with sequence at 1.0 μg/ml): 24%; % INHIBITION of MCF-7 proliferation, 5-Fluorouracil 1.0 μg/ml ([6]; 5-fluorouracil 1.0 μg/ml, alone or with sequence at 1.0 μg/ml): 36%; % INHIBITION of MCF-7 proliferation, 5-Fluorouracil 10.0 μg/ml ([6]; 5-fluorouracil 10.0 μg/ml, alone or with sequence at 1.0 μg/ml): 33%; potentiation of antineoplastic effect of 5-fluorouracil on MCF-7 cell proliferation ([6]; sequence 1.0 μg/ml, 0.1 μg/ml 5-fluorouracil): potentiated; potentiation of antineoplastic effect of tamoxifen on MCF-7 cell proliferation ([6]; sequence 1.0 μg/ml, 0.1 μg/ml tamoxifen): potentiated; % INHIBITION of MCF-7 proliferation, 5-Fluorouracil 0.0 μg/ml ([6]; sequence at 1.0 μg/ml, 5-fluorouracil 0.0 μg/ml): 6%; % INHIBITION of MCF-7 proliferation, Tamoxifen 0.0 μg/ml ([6]; sequence at 1.0 μg/ml, tamoxifen 0.0 μg/ml): 6%; % INHIBITION of MCF-7 proliferation, Tamoxifen 0.1 μg/ml ([6]; tamoxifen 0.1 μg/ml, alone or with sequence at 1.0 μg/ml): 21%; % INHIBITION of MCF-7 proliferation, Tamoxifen 1.0 μg/ml ([6]; tamoxifen 1.0 μg/ml, alone or with sequence at 1.0 μg/ml): 24%; % INHIBITION of MCF-7 proliferation, Tamoxifen 10.0 μg/ml ([6]; tamoxifen 10.0 μg/ml, alone or with sequence at 1.0 μg/ml): 31%; % INHIBITION of SK-OV-3 human ovarian cancer cell proliferation [7]: 12%; % NUMA RELEASED ([10]; Jurkat 1×10^6/ml): 269%; % NuMA released (untreated vs treated cells) ([10]; Jurkat, 24 h, sequences heated 10 minutes at 65° C.): 69% |
| GTGTGT [SEQ ID NO:10] | −2% | 15% | 37% | 11% | 30.8% | 0.3% | 41.9% | 10.2% | 16.8% | End SE | 31% | 33% | 15% | 90% | – |
| TTGTTT [SEQ ID NO:26] | – | – | 18% | 1% | 32.6% | 32.4% | 11.5% | 10.7% | 12.8% | END G2/M | 20% | 14% | – | 23% | – |
